What was measured:
[1] = Inhibition of rat MDD
Rattus norvegicus = species: Rattus norvegicus; assay: Activity of wild type MDD in rat liver
[2] = substrate: Nc1ncnc2c1ncn2[C@@H]1O[C@H](COP(=O)(O)OP(=O)(O)OP(=O)(O)O)[C@@H](O)[C@H]1O; assay: (§1) Activity of MDD K27A mutant; settings: Rattus norvegicus
[3] = substrate: C[C@@](O)(CCOP(=O)(O)OP(=O)(O)O)CC(=O)O; assay: as §1; settings: Rattus norvegicus
[4] = substrate: Nc1ncnc2c1ncn2[C@@H]1O[C@H](COP(=O)(O)OP(=O)(O)OP(=O)(O)O)[C@@H](O)[C@H]1O; assay: (§2) Activity of MDD R154A mutant; settings: Rattus norvegicus
[5] = substrate: C[C@@](O)(CCOP(=O)(O)OP(=O)(O)O)CC(=O)O; assay: as §2; settings: Rattus norvegicus

Molecule: CCCC(C)(O)CCOP(=O)(O)OP(=O)(O)O (stereo unspecified)
- IC50 [1]: 120 µM

Molecule: CC(C)(O)CCOP(=O)(O)OP(=O)(O)O
- IC50 [1]: 60 µM

Molecule: C[C@@](O)(CCOP(=O)(O)OP(=O)(O)O)CC(=O)O
- Km (Rattus norvegicus): 36 µM
- Vmax (Rattus norvegicus): 6.6 µmol/min/mg

Molecule: CCC(C)(O)CCOP(=O)(O)OP(=O)(O)O (stereo unspecified)
- IC50 [1]: 80 µM

Molecule: CCC(O)(CCOP(=O)(O)OP(=O)(O)O)C(F)C(=O)O (stereo unspecified)
- IC50 [1]: 20 µM

Molecule: CC(O)(CCF)CCOP(=O)(O)OP(=O)(O)O (stereo unspecified)
- IC50 [1]: 50 µM

Molecule: CC(O)(CCOP(=O)(O)OP(=O)(O)O)C(F)(F)C(=O)O (stereo unspecified)
- IC50 [1]: 7.5 µM

Molecule: Nc1ncnc2c1ncn2[C@@H]1O[C@H](COP(=O)(O)OP(=O)(O)OP(=O)(O)O)[C@@H](O)[C@H]1O
- Km (Rattus norvegicus): 530 µM

Molecule: CC(O)(CCOP(=O)(O)OP(=O)(O)O)Cc1ccccc1 (stereo unspecified)
- IC50 [1]: 140 µM

B1: Diphosphomevalonate decarboxylase (Rattus norvegicus), Q62967 K27A (protein)
chain: MASEKPQDLMVTCTAPVNIAVIKYWGARDEALILPINPSLSVTLHQDQLKTTTTAAISKDFTEDRIWLNGREEDVGQPRLQACLREIRRLARKRRSTGDGDALPLSLGYKVHVASVNNFPTAAGLASSAAGYACLAYTLARVYGVEGDLSEVARRGSGSACRSLYGGFVEWQMGEQADGKDSIARQIAPEWHWPQLRVLILVVSAEKKPTGSTVGMQTSVATSTLLKFRAESIVPERMKEMTRCIQEQDFQAFAQLTMKDSNQFHATCLDTFPPISYLNDTSRRIIQLVHRFNAHHGQTKVAYTFDAGPNAVIFTLEDTVAEFVAAVRHSFPPAANGDKFLKGLQVAPVLLSDELKTSLATEPSPGGVQYIIATQVGPGPQVLDDPHHHLLGPDGLPQRDL
- Km [2]: 1870 µM
- Km [3]: 750 µM
- Vmax [3]: 0.14 µmol/min/mg

B2: Diphosphomevalonate decarboxylase (Rattus norvegicus), Q62967 R154A (protein)
chain: MASEKPQDLMVTCTAPVNIAVIKYWGKRDEALILPINPSLSVTLHQDQLKTTTTAAISKDFTEDRIWLNGREEDVGQPRLQACLREIRRLARKRRSTGDGDALPLSLGYKVHVASVNNFPTAAGLASSAAGYACLAYTLARVYGVEGDLSEVAARGSGSACRSLYGGFVEWQMGEQADGKDSIARQIAPEWHWPQLRVLILVVSAEKKPTGSTVGMQTSVATSTLLKFRAESIVPERMKEMTRCIQEQDFQAFAQLTMKDSNQFHATCLDTFPPISYLNDTSRRIIQLVHRFNAHHGQTKVAYTFDAGPNAVIFTLEDTVAEFVAAVRHSFPPAANGDKFLKGLQVAPVLLSDELKTSLATEPSPGGVQYIIATQVGPGPQVLDDPHHHLLGPDGLPQRDL
- Km [4]: 1400 µM
- Km [5]: 920 µM
- Vmax [5]: 0.34 µmol/min/mg
